Measured values reported in ChEMBL document CHEMBL4177599, “The antitubercular activity of various nitro(triazole/imidazole)-based compounds” (Bioorg Med Chem, 2017).
In brackets after ≈: the same amount, converted by molar mass.

Key:
[1] = system: Mycobacterium tuberculosis; assay: Antitubercular activity against Mycobacterium tuberculosis H37Rv ATCC 27294 after 5 days under aerobic condition; type: functional, organism-based; conditions: for IC50 / IC90 / MIC: H37Rv ATCC 27294, 120 h
[2] = system: Mycobacterium tuberculosis; assay: Antitubercular activity against Mycobacterium tuberculosis H37Rv ATCC 27294 after 10 days under low oxygen condition followed by incubation under aerobic condition for 28 hrs by LORA; type: functional, organism-based
[3] = system: Mycobacterium tuberculosis; assay: Bactericidal activity against Mycobacterium tuberculosis H37Rv ATCC 27294 assessed as concentration required for 2 log kill after 21 days under aerobic condition by colony forming assay; type: functional; conditions: for MBC: H37Rv ATCC 27294, 504 h
Vero = assay: Cytotoxicity against African green monkey Vero cells after 2 days by CellTiter-Glo luminescent cell viability assay; type: ADME, cell-based; conditions: Chlorocebus sabaeus, 48 h
L6 = assay: Cytotoxicity against rat L6 cells after 2 days by CellTiter-Glo luminescent cell viability assay; type: ADME, cell-based; conditions: L6, 48 h
[4] = system: Mycobacterium tuberculosis; assay: Antitubercular activity against luxABCDE expressing Mycobacterium tuberculosis H37Rv infected in mouse J774 macrophages assessed as log reduction in bacterial colonies at 200 uM measured after 4 days under aerobic condition by luminescence assay; type: functional
THP-1 = assay: Cytotoxicity against human THP1 cells after 3 days by luminescence assay; type: cell-based; conditions: THP-1, 72 h
[5] = system: Mycobacterium tuberculosis; assay: Antitubercular activity against luxABCDE expressing Mycobacterium tuberculosis H37Rv infected in human THP1 cells measured after 3 days by luminescence assay; type: functional, organism-based; conditions: THP-1, 72 h
[6] = system: Mycobacterium tuberculosis; assay: Potency index, ratio of compound MIC to metronidazole MIC for antitubercular activity against Mycobacterium tuberculosis H37Rv ATCC 27294 under low oxygen condition; type: functional
[7] = system: Mycobacterium tuberculosis; assay: Antitubercular activity against luxABCDE expressing Mycobacterium tuberculosis H37Rv infected in mouse J774 macrophages assessed as log reduction in bacterial colonies at 20 uM measured after 4 days under aerobic condition by luminescence assay; type: functional
[8] = Protein binding in human plasma at 5 uM after 4 hrs by LC-MS/MS analysis
[9] = Half life in human liver S9 microsomes at 1 uM in presence of NADPH by LC-MS/MS analysis
[10] = Half life in human liver S9 microsomes at 1 uM in absence of NADPH by LC-MS/MS analysis
HepG2 = assay: Cytotoxicity against human HepG2 cells at 100 uM after 3 days by CellTiter-Glo luminescent cell viability assay; type: cell-based; conditions: HepG2, 72 h
[11] = Solubility of compound in Middlebrook 7H9 broth media at pH 6.4 at 200 uM after 90 mins by UV-VIS spectrophotometric method; type: physicochemical; conditions: buffer, pH 6.4, 1.5 h

Row | SMILES | IC50 [1] | IC90 [1] | MIC [1] | IC50 [2] | IC90 [2] | MIC [2] | MBC [3] | IC50 (Vero) | other results
1 | CC(O)(Cn1cnc([N+](=O)[O-])n1)c1ccc(-c2ccc(C#N)cc2)cc1 (stereo not given) | 55 µM | 125 µM | > 200 µM | 73 µM | 176 µM | > 200 µM | 100 µM (≈ 34.9 µg/mL) | 66 µM | IC50 (L6): 86 µM
2 | O=C(Cn1ccnc1[N+](=O)[O-])Nc1ccc(Oc2ccccc2)cc1 | 60 µM | 90 µM | 98 µM (≈ 33.2 µg/mL) | 14 µM | 71 µM | > 200 µM | 100 µM (≈ 33.8 µg/mL) | 98 µM | IC50 (L6): 63 µM; log(activity) [4]: 2.7
3 | O=C(Cn1cnc([N+](=O)[O-])n1)Nc1ccc(Cc2ccccc2)cc1 | 30 µM | 38 µM | 45 µM (≈ 15.2 µg/mL) | 39 µM | 59 µM | 94 µM (≈ 31.7 µg/mL) | 20 µM (≈ 6.75 µg/mL) | – | IC50 (THP-1): 47 µM; IC50 [5]: 6.2 µM; IC90 [5]: 12 µM
4 | O=C(Cn1cnc([N+](=O)[O-])n1)Nc1ccc(Oc2ccccc2)cc1 | 65 µM | 100 µM | 105 µM (≈ 35.6 µg/mL) | 8.9 µM | 92 µM | > 200 µM | 200 µM (≈ 67.9 µg/mL) | 39 µM | log(activity) [4]: 2.7
5 | O=C(Cn1ccnc1[N+](=O)[O-])Nc1ccc(Oc2ccc(Cl)cc2)cc1 | 81 µM | > 200 µM | > 200 µM | 17 µM | 24 µM | 35 µM (≈ 13 µg/mL) | 100 µM (≈ 37.3 µg/mL) | 30 µM | Ratio [6]: 6 - 9; log(activity) [7]: 2.6
6 | N#Cc1ccc(-c2ccc(NC(=O)Cn3cnc([N+](=O)[O-])n3)cc2)cc1 | > 200 µM | > 200 µM | > 200 µM | – | – | 52.1 µM (≈ 18.1 µg/mL) | – | – | –
7 | O=C(Cn1cnc([N+](=O)[O-])n1)Nc1ccc(Oc2ccc(Cl)cc2)cc1 | 51 µM | 100 µM | 94 µM (≈ 35.1 µg/mL) | 13 µM | 94 µM | > 200 µM | 100 µM (≈ 37.4 µg/mL) | 19 µM | log(activity) [4]: 2.6
8 | O=C(CCn1cnc([N+](=O)[O-])n1)Nc1ccc(Oc2ccc(F)cc2)cc1 | 22 to 25 µM | 28 to 34 µM | 31 to 32 µM (≈ 11.5 to 11.9 µg/mL) | 25 µM | 28 µM | 31 µM (≈ 11.5 µg/mL) | 20 µM (≈ 7.43 µg/mL) | – | Activity ([1]; TDE = time-dependent effect): Tde; Activity ([3]; TDE = time-dependent effect): Tde; Ratio [6]: 6 - 9; IC50 (THP-1): 21 µM; IC50 (L6): 23 µM; IC50 [5]: 3.8 µM; IC90 [5]: 16 µM
9 | O=C(Cn1cnc([N+](=O)[O-])n1)N1CCN(C(c2ccccc2)c2ccc(Cl)cc2)CC1 (stereo not given) | 38 µM | 48 µM | 50 µM (≈ 22 µg/mL) | 51 µM | 57 µM | 65 µM (≈ 28.7 µg/mL) | 100 µM (≈ 44.1 µg/mL) | 21 µM | IC50 (L6): 32 µM; IC50 [5]: 8 µM; IC90 [5]: 11 µM
10 | O=C(Cn1cnc([N+](=O)[O-])n1)N1CCN(Cc2ccc(C(F)(F)F)cc2)CC1 | 25 µM | 28 µM | 27 µM (≈ 10.8 µg/mL) | 62 µM | 100 µM | 170 µM (≈ 67.7 µg/mL) | 20 µM (≈ 7.97 µg/mL) | – | IC50 (THP-1): > 50 µM; IC50 [5]: 13 µM; IC90 [5]: 14 µM; fraction unbound at 4 h, 5 µM [8]: 0.179; half-life at 1 µM [9]: > 3 h; half-life at 1 µM [10]: > 3 h; IC50 (HepG2): > 100 µM
11 | O=C(Cn1cnc([N+](=O)[O-])n1)Nc1cc(-c2ccc(Cl)cc2)no1 | 96 µM | 140 µM | 200 µM (≈ 69.7 µg/mL) | – | – | – | – | – | –
12 | CC(=O)N1CCN(c2ccc(OCC3COC(Cn4ccnc4)(c4ccc(Cl)cc4Cl)O3)cc2)CC1 (stereo not given) [KETOCONAZOLE] | – | – | – | – | – | – | – | – | solubility [11]: Insoluble
13 | O=C(NCCCn1cnc([N+](=O)[O-])n1)c1cc2ccccc2s1 | 107 µM | > 200 µM | > 200 µM | – | – | – | – | – | solubility [11]: Insoluble
14 | Cc1nc([N+](=O)[O-])cn1CCCNC(=O)c1sc2ccccc2c1Cl | 175 µM | > 200 µM | > 200 µM | – | – | – | – | – | solubility [11]: Soluble
15 | O=C(CCn1cnc([N+](=O)[O-])n1)Nc1cc(-c2ccc(F)cc2)on1 | 66 µM | > 100 µM | > 200 µM | – | – | – | – | – | –
